Results: patent US20120232066A1, “COMPOSITIONS FOR REDUCING RISK OF ADVERSE EVENTS CAUSED BY DRUG-DRUG INTERACTIONS” (priority 2011, published 2012)

Experiments:
[1] = Oral administration of Compound KC-17 co-dosed with Compound 109 to rats; oxycodone in plasma; type: in vivo, rat; conditions: KC-17 50 mg/kg
Procedure: At specified time points, blood samples were drawn, harvested for plasma via centrifugation at 5,400 rpm at 4° C. for 5 min, and 100 microliters (μl) plasma transferred from each sample into a fresh tube containing 2 μl of 50% formic acid. The tubes were vortexed for 5-10 seconds, immediately placed in dry ice, and then stored in a −80° C. freezer until analysis by HPLC/MS.

[2] = Oral administration of Compound AM-2 and Compound 109 to rats; amphetamine in plasma; type: in vivo, rat; conditions: suppressing Cmax and delaying Tmax
Text: Table 10 and FIG. 10 provide amphetamine exposure results for rats administered with Compound AM-2 and with or without a co-dose of trypsin inhibitor.

[3] = Oral administration of Compound PC-1 and SBTI trypsin inhibitor to rats; hydromorphone in blood; conditions: for Cmax (ng/mL HM): hydromorphone in rat blood, PO PC-1 20 mg/kg
Procedure: At specified time points, blood samples were drawn, quenched into methanol, centrifuged at 14,000 rpm @ 4° C., and stored at −80° C. until analysis by high performance liquid chromatography/mass spectrometry (HPLC/MS).

N=C(N)c1ccc2cc(OC(=O)c3ccc(N=C(N)N)cc3)ccc2c1 [Compound 109, 6-carbamimidoylnaphthalen-2-yl 4-(diaminomethyleneamino)benzoate]
effect of Compound 109 on oxycodone release from Compound KC-17 [1]: attenuate release of oxycodone by prodrugs of the embodiments | effect of Compound 109 on amphetamine release from Compound AM-2 [2]: ability to attenuate

CC(=O)NC(CCCNC(=N)N)C(=O)NCCN(C)C(=O)Oc1ccc2c3c1OC1C(=O)CCC4C(C2)N(C)CCC314 (stereo not drawn) [Compound PC-1, Hydromorphone 3-(N-methyl-N-(2-N′-acetylarginylamino)) ethylcarbamate]
Cmax (ng/mL HM) ([3]; SBTI 0 mg/kg): 16.5 ± 5.3 ng/mL | Cmax (ng/mL HM) ([3]; SBTI 10 mg/kg): 8.9 ± 1.8 ng/mL | Cmax (ng/mL HM) ([3]; SBTI 100 mg/kg): 6.0 ± 4.0 ng/mL | Cmax (ng/mL HM) ([3]; SBTI 500 mg/kg): <5 ng/mL | Cmax (ng/mL HM) ([3]; SBTI 1000 mg/kg): <5 ng/mL

B1: SBTI: trypsin inhibitor from Glycine max (soybean) (Catalog No. 93620, ~10,000 units per mg, Sigma-Aldrich) (protein, UniProt P01070 25-205, looked up)
Trypsin inhibitor A: DFVLDNEGNPLENGGTYYILSDITAFGGIRAAPTGNERCPLTVVQSRNELDKGIGTIISSPYRIRFIAEGHPLSLKFDSFAVIMLCVGIPTEWSVVEDLPEGPAVKIGENKDAMDGWFRLERVSDDEFNNYKLVFCPQQAEDDKCGDIGISIDHDDGTRRLVVSKNKPLVVQFQKLDKESL
effect of SBTI on hydromorphone release from Compound PC-1 into blood ([3]; rats PO, PC-1 20 mg/kg and 10, 100, 500 or 1000 mg/kg SBTI): suppresses Cmax and delays Tmax | attenuation of Compound PC-1's ability to release hydromorphone ([3]; rats PO, PC-1 20 mg/kg, at higher SBTI concentrations): approximately 100%
